Legend:
AQ STING (G230A-R293Q) = target: T1, AQ STING (G230A-R293Q) (Homo sapiens, UniProt Q86WV6, G230A/H232R/R293Q); test: Differential Scanning Fluorimetry with AQ STING; format: binding; details: thermal shift vs STING apoprotein, 150 μM CDN, 0.1 mg/ml truncated human AQ STING, SYPRO Orange; for ΔTm at 150 µM: read-out: DSF ΔTm (° C.) AQ STING
T1 construct: truncated human WT STING or AQ STING (amino acid residues 140-343); 8xHis (N, cleaved yes); SUMO (N, cleaved yes); made in house; host or cells: E. coli Rosetta-gami B (DE3)
Protocol: (§1) WT STING and AQ STING Proteins
(§2) Purified PCR products were cleaved with restriction enzymes BamHI (cat. #R0136S, NEB, Ipswich, USA) and NotI (cat. #R0189S, NEB, Ipswich, USA) and cloned into the pSUMO vector linearized with the identical enzymes.
(§3) The resin was poured into a chromatography column, washed with 50 ml buffer A (50 mmol·l^−1 TrisCl (pH 8.0), 800 mmol·l^−1 NaCl, 3 mmol·l^−1 β-mercaptol; 10% glycerol; 20 mmol·l^−1 imidazole) and 8-His-SUMO tagged STING proteins were eluted with 15 ml buffer A containing 300 mmol·l^−1 imidazole. […] Proteins were concentrated with Amicon® Ultra-15 10 K device (cat. #UFC901008, Merck Millipore, Billerica, USA) and flash frozen in liquid N2.
(§4) Differential Scanning Fluorimetry with WT STING and AQ STING
(§5) 20 μL solutions of the reaction mixtures were pipetted in triplicates into 96 well optical reaction plates and thermal denaturation of samples were performed on real time PCR cycler (LightCycler® 480 Instrument II—Roche, Basel, Switzerland). The first derivative of the thermal denaturation curves was performed to calculate denaturing temperatures of STING—CDN complexes and STING apoproteins. The thermal shift for each CDN was calculated by subtracting the average denaturing temperature of STING apoprotein from the average denaturing temperature of STING CDN complex.

WT STING [1] = target: T2, WT STING (Homo sapiens, UniProt Q86WV6, H232R); test: Differential Scanning Fluorimetry with WT STING; format: binding; set-up: truncated human WT STING or AQ STING (amino acid residues 140-343); 8xHis (N, cleaved yes); SUMO (N, cleaved yes); made in house; host or cells: E. coli Rosetta-gami B (DE3); details: thermal shift vs STING apoprotein, 150 μM CDN, 0.1 mg/ml truncated human WT STING, SYPRO Orange; for ΔTm at 150 µM: read-out: DSF ΔTm (° C.) WT STING
Protocol: as §1, §2, §3, §4, §5
Target sequence in this assay (Q86WV6 140-343 H232R): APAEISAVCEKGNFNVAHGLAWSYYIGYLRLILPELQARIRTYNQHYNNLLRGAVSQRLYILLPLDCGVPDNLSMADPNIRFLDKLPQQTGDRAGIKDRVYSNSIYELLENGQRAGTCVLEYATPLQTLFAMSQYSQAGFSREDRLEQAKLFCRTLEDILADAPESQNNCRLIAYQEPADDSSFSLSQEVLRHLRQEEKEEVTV

WT STING [2] = target: T2, WT STING; test: Digitonin assay using 293T wtSTING-FL reporter cells; format: cell-based; details: 293T wtSTING-FL cells; 30 minutes in Digitonin buffer, then 5 hours; ISRE firefly luciferase reporter; 8-point dose-response curve; read-out: Digitonin assay EC50 (μmol · l^−1) WT STING
Description: ISRE Reporter Plasmid (pGL64.27-4xISRE)
Two complementary oligonucleotides of the sequence […] […] […] […] […] The oligonucleotides were mixed in equal molar amounts, hybridized, and cleaved by restriction endonucleases HindIII (cat. #. R0104S, NEB, Ipswich, USA) and BglII (cat. #R0144S, NEB, Ipswich, USA). Ultimately, they were ligated into plasmid pGL4.27 (cat. #E6651, Promega, Madison, USA) linearized with the same enzymes. As result the sequence with four ISRE sites was placed upstream of the minimum promoter of firefly luciferase reporter gene.
After 5 minutes incubation at room temperature (RT), 250 μL of the mixture was added dropwise to the cells in one well. Cells were incubated 36 hours at 37° C. with 5% CO2, and then detached with 0.05% Trypsin and 0.22 g/L EDTA (both cat. #L0941, Biowest, Riverside, USA).
Transfected cells were seeded onto poly-D-lysine coated six well plates at density 50,000 cells per 1 cm^2 in DMEM medium with high glucose containing 10% heat inactivated FBS, 30 g/mL blasticidin (cat. #ant-bl-05, InvivoGen, San Diego, USA), 0.06 mg/ml Penicillin G and 0.1 mg/ml Streptomycin Sulfate (both cat. #. L0018, Biowest, Riverside, USA). The medium was replenished every 3-4 days until visible colonies of cells resistant to blasticidin were formed.
Blasticidin resistant cells stably expressing WT STING were further transfected with […] plasmid following the same procedure as described above. […] Homogeneous culture of stably double transfected cells was prepared by limiting dilution of cells in 96 well plates and wells with cells were selected that originated from a single cell.
The medium was removed next day and three fold serial dilutions of compounds in Digitonin buffer containing 50 mmol·l^−1 HEPES (cat. #H3375, Sigma Aldrich, Czech Republic) pH 7.0, 100 mmol·l^−1 KCl, 3 mmol·l^−1 MgCl2, 0.1 mmol·l^−1 DTT (cat. #D0632, Sigma Aldrich, Czech Republic), 85 mmol·l^−1 Sucrose (cat. #S7903, Sigma Aldrich, Czech Republic), 0.2% BSA (cat. #A2153, Sigma Aldrich, Czech Republic), 1 mmol·l^−1 ATP (cat. #A1852, Sigma Aldrich, Czech Republic), 0.1 mmol·l^−1 GTP (cat. #G8877, Sigma Aldrich, Czech Republic), and 10 μg/mL Digitonin A (cat. #D141, Sigma Aldrich, Czech Republic) were added to the cells. The buffer was removed after 30 minutes incubation at 37° C. with 5% CO2, the cells were washed once with 100 μl of cultivation medium, and 100 μl of medium was added to each well. The plates with cells were incubated for 5 hours at 37° C. with 5% CO2, 50 μl of the medium was removed and 30 μl of ONE-Glo™ Luciferase Assay System reagent (cat. #E6120, Promega, Madison, USA) was added to each well. Luminescence was read on Synergy H1 (Biotek, Winooski, USA).
Target sequence in this assay (Q86WV6 whole entry H232R, the tested form may be a part): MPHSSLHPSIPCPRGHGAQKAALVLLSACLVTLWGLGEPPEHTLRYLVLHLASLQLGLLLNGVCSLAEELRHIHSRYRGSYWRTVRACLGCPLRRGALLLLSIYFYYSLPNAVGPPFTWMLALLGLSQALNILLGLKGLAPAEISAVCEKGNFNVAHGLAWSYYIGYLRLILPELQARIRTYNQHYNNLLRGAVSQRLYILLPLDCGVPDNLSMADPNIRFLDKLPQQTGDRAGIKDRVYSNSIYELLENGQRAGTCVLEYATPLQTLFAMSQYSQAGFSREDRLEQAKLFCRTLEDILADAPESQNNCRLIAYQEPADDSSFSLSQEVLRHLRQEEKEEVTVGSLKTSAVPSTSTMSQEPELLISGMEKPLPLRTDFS

T1 sequence (Q86WV6 140-343 G230A/H232R/R293Q): as the sequence (Q86WV6 140-343 H232R) above, with G91A, R154Q counted along it

| DSF ΔTm (° C.) AQ STING (AQ STING (G230A-R293Q)) [°C] | DSF ΔTm (° C.) WT STING (WT STING [1]) [°C] | EC50 (WT STING [2]) [nM] | ΔTm at 150 µM (AQ STING (G230A-R293Q)) [°C] | ΔTm at 150 µM (WT STING [1]) [°C] | Compound |
| --- | --- | --- | --- | --- | --- |
| 19.4 | 11.5 | 30 |  |  | Nc1nc2c(ncn2[C@@H]2O[C@@H]3COP(=O)(O)O[C@@H]4[C@H](O)[C@@H](COP(=O)(O)O[C@@H]2[C@@H]3O)O[C@H]4n2cnc3c(N)ncnc32)c(=O)[nH]1 [2′2′-cGAMP, reference compound] |
| 9.3 | 2.6 | 300 |  |  | Nc1ncnc2c1ncn2[C@@H]1O[C@@H]2COP(=O)(O)O[C@H]3[C@@H](O)[C@H](n4cnc5c(N)ncnc54)O[C@@H]3COP(=O)(O)O[C@H]2[C@H]1O [3′3′c-di-AMP, reference compound] |
| 7.7 | 2.6 | 5800 |  |  | Nc1nc2c(ncn2[C@@H]2O[C@@H]3COP(=O)(O)O[C@H]4[C@@H](O)[C@H](n5cnc6c(=O)[nH]c(N)nc65)O[C@@H]4COP(=O)(O)O[C@H]3[C@H]2O)c(=O)[nH]1 [3′3′c-di-GMP, reference compound] |
|  |  | 6700 | 6.4 | 0.8 | Nc1ncnc2c1ncn2[C@@H]1O[C@@H]2OCP(=O)(O)O[C@@H]3[C@H](O)[C@@H](OCP(=O)(O)O[C@H]2[C@H]1O)O[C@H]3n1cnc2c(N)ncnc21 [Compound 30, (1R,6R,8R,9R,10S,15R,17R,18S)-8,17-bis(6-amino-9H-purin-9-yl)-3,9,12,18-tetrahydroxy-2,5,7,11,14,16-hexaoxa-3λ^5,12λ^5-diphosphatricyclo[13.2.1.0^6,^10]octadecane-3,12-dione] |
|  |  | 12500 | 5.7 | 0.5 | Nc1ncnc2c1ncn2[C@@H]1O[C@@H]2COP(=O)(O)O[C@@H]3[C@H](O)[C@@H](COCP(=O)(O)O[C@H]2[C@H]1O)O[C@H]3n1cnc2c(N)ncnc21 [Compound 31] |
|  |  | 8000 | 5.3 | 0.5 | Nc1ncnc2c1ncn2[C@@H]1O[C@@H]2COCP(=O)(O)O[C@@H]3[C@H](O)[C@@H](COP(=O)(O)O[C@H]2[C@H]1O)O[C@H]3n1cnc2c(N)ncnc21 [Compound 32, (1R,6S,7R,8R,10R,16R,17R,19R)-8,17-bis(6-amino-9H-purin-9-yl)-4,7,14,19-tetrahydroxy-3,5,9,12,15,18-hexaoxa-4λ^5,14λ^5-diphosphatricyclo[14.2.1.0^6,^10]nonadecane-4,14-dione] |
|  |  | 2600 | 8.3 | 1.6 | Nc1ncnc2c1ncn2[C@@H]1O[C@@H]2COP(=O)(O)O[C@@H]3[C@H](O)[C@@H](COCP(=O)(O)O[C@H]2[C@H]1F)O[C@H]3n1cnc2c(N)ncnc21 [Compound 33, (1R,6R,8R,9R,10R,16R,18R,19R)-8,18-bis(6-amino-9H-purin-9-yl)-9-fluoro-3,12,19-trihydroxy-2,4,7,11,14,17-hexaoxa-3λ^5,12λ^5-diphosphatricyclo[14.2.1.0^6,^10]nonadecane-3,12-dione] |
|  |  | 180 | 14.2 | 5.8 | Nc1nc2c(ncn2[C@@H]2C[C@@H]3COP(=O)(O)O[C@@H]4[C@@H](OCP(=O)(O)O[C@@H]2[C@@H]3O)O[C@@H](n2cnc3c(N)ncnc32)[C@@H]4O)c(=O)[nH]1 [Compound 36, (1S,6R,8R,9R,10S,15R,17R,18R)-17-(2-amino-6-oxo-6,9-dihydro-1H-purin-9-yl)-8-(6-amino-9H-purin-9-yl)-3,9,12,18-tetrahydroxy-2,5,7,11,13-pentaoxa-3λ^5,12λ^5-diphosphatricyclo[13.2.1.0^6,10]octadecane-3,12-dione] |
|  |  | 50 | 16.5 | 8.5 | Nc1ncnc2c1ncn2[C@@H]1O[C@@H]2OCP(=O)(O)O[C@@H]3[C@H](O)[C@@H](COP(=O)(O)O[C@H]2[C@H]1O)O[C@H]3n1cnc2c(=O)[nH]cnc21 [Compound 37, (1R,6R,8R,9R,10S,15R,17R,18R)-8-(6-amino-9H-purin-9-yl)-3,9,12,18-tetrahydroxy-17-(6-oxo-6,9-dihydro-1H-purin-9-yl)-2,5,7,11,13,16-hexaoxa-3λ^5,12λ^5 diphosphatricyclo[13.2.1.0^6,10]octadecane-3,12-dione] |
|  |  | 50 | 16.2 | 8.2 | Nc1nc2c(ncn2[C@@H]2O[C@@H]3COP(=O)(O)O[C@@H]4[C@@H](OCP(=O)(O)O[C@@H]2C3)O[C@@H](n2cnc3c(N)ncnc32)[C@@H]4O)c(=O)[nH]1 [Compound 38, (1R,6R,8R,9R,10S,15S,17R)-17-(2-amino-6-oxo-6,9-dihydro-1H-purin-9-yl)-8-(6-amino-9H-purin-9-yl)-3,9,12-trihydroxy-2,5,7,11,13,16-hexaoxa-3λ^5,12λ^5-diphosphatricyclo[13.2.1.0^6,10]octadecane-3,12-dione] |
|  |  | 80 | 17.2 | 11 | Nc1nc2c(ncn2[C@@H]2O[C@@H]3COP(=O)(S)O[C@@H]4[C@@H](OCP(=O)(O)O[C@@H]2[C@@H]3O)O[C@@H](n2cnc3c(N)ncnc32)[C@@H]4O)c(=O)[nH]1 (stereo partly drawn) [Compound 39, (1R,6R,8R,9R,10S,15R,17R,18R)-17-(2-amino-6-oxo-6,9-dihydro-1H-purin-9-yl)-8-(6-amino-9H-purin-9-yl)-3,9,18-trihydroxy-12-sulfanyl-2,5,7,11,13,16-hexaoxa-3λ^5,12λ^5-diphosphatricyclo[13.2.1.0^6,10]octadecane-3,12-dione] |

| Compound | DSF ΔTm (° C.) AQ STING (AQ STING (G230A-R293Q)) [°C] | DSF ΔTm (° C.) WT STING (WT STING [1]) [°C] | EC50 (WT STING [2]) [nM] | ΔTm at 150 µM (AQ STING (G230A-R293Q)) [°C] | ΔTm at 150 µM (WT STING [1]) [°C] |
| --- | --- | --- | --- | --- | --- |
| 1R,6R,8R,9R,10R,15R,17R,18S)-8,17-bis(6-amino-9H-purin-9-yl)-9-fluoro-3,12,18-trihydroxy-2,4,7,11,14,16-hexaoxa-3λ^5,12λ^5-diphosphatricyclo[13.2.1.0^6,^10]octadecane-3,12-dione [Compound 34] | 8.5 | 2.6 | 700 |  |  |

From patent US11203610B2, “2′3′ cyclic dinucleotides with phosphonate bond activating the sting adaptor protein” (INSTITUTE OF ORGANIC CHEMISTRY AND BIOCHEMISTRY ASCR, V.V.I., priority 2017, dated 2021)
